#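 Test compounds were applied to cells in 96-well plates for 48 hours at 5 doses. At the GI50, growth is halved. TGI is the concentration that stops growth completely.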
# Assays:
# Test in all cases: DTP human tumour cell line panel, 48 h
# [1] = system: EKVX NSCLC
# [2] = system: SR leukemia
# [3] = system: A549 NSCLC
# [4] = system: OVCAR-4 ovarian
# [5] = system: 786-0 renal
# [6] = system: MCF7 breast
# [7] = system: RPMI-8226 leukemia
# [8] = system: SN12C renal
# [9] = system: DU-145 prostate
# [10] = system: RXF 393 renal
# [11] = system: HS 578T breast
# [12] = system: BT-549 breast
# [13] = system: NCI-H460 lung
# [14] = system: NCI-H226 lung
# [15] = system: SNB-75 CNS
# [16] = system: PC-3 prostate
# [17] = system: SNB-19 CNS
# [18] = system: UACC-257 melanoma
# [19] = system: SK-MEL-2 melanoma
# [20] = system: SF-268 CNS
# [21] = system: U251 CNS
# [22] = system: OVCAR-8 ovarian
# [23] = system: HCT-116 colon
# [24] = system: SK-OV-3 ovarian
# [25] = system: SF-539 CNS
# [26] = system: HCT-15 colon
# [27] = system: TK-10 renal
# [28] = system: KM12 colon
# [29] = system: OVCAR-5 ovarian
# [30] = system: MDA-MB-231 breast
# [31] = system: HOP-62 NSCLC
# [32] = system: M14 melanoma
# [33] = system: HT29 colon
# [34] = system: NCI-H522 lung
# [35] = system: SW-620 colon
# [36] = system: UACC-62 melanoma
# [37] = system: UO-31 renal
# [38] = system: MOLT-4 leukemia
# [39] = system: IGROV1 ovarian
# [40] = system: SK-MEL-5 melanoma
# [41] = system: NCI/ADR-RES ovarian
# [42] = system: SK-MEL-28 melanoma
# [43] = system: LOX IMVI melanoma
# [44] = system: MALME-3M melanoma
# [45] = system: MDA-MB-468 breast
# [46] = system: A498 renal
# [47] = system: SF-295 CNS
# [48] = system: CCRF-CEM leukemia
# [49] = system: MDA-MB-435
# [50] = system: NCI-H23 lung
# [51] = system: K-562 leukemia
# [52] = system: HCC-2998 colon
# [53] = system: OVCAR-3 ovarian
# [54] = system: HL-60(TB) leukemia
# [55] = system: T-47D breast
# [56] = system: CAKI-1 renal
# [57] = system: COLO 205 colon
# [58] = system: HOP-92 NSCLC
# [59] = system: ACHN renal
smiles,measurement,setting,value
O=C(CSc1nnc(-c2ccc(-c3nc4ccccc4[nH]3)cc2)o1)Nc1ccc(Cl)cc1,GI50,[1],10.8 µM
same,TGI,[1],28.1 µM
same,GI50,[2],10.1 µM
same,TGI,[2],> 100 µM
same,GI50,[3],3.65 µM
same,TGI,[3],16.4 µM
same,GI50,[4],9.74 µM
same,TGI,[4],22.2 µM
same,GI50,[5],2.04 µM
same,TGI,[5],4.45 µM
same,GI50,[6],3.73 µM
same,TGI,[6],19.3 µM
same,GI50,[7],8.39 µM
same,TGI,[7],80.3 µM
same,GI50,[8],10.1 µM
same,TGI,[8],22.3 µM
same,GI50,[9],4.62 µM
same,TGI,[9],17.4 µM
same,GI50,[10],4.41 µM
same,TGI,[10],16.7 µM
same,GI50,[11],11.9 µM
same,TGI,[11],42.6 µM
same,GI50,[12],3.4 µM
same,TGI,[12],14 µM
same,GI50,[13],2.93 µM
same,TGI,[13],10.9 µM
same,GI50,[14],2.5 µM
same,TGI,[14],9.38 µM
same,GI50,[15],2.44 µM
same,TGI,[15],14.5 µM
same,GI50,[16],3.9 µM
same,TGI,[16],16.7 µM
same,GI50,[17],14.6 µM
same,TGI,[17],29.7 µM
same,GI50,[18],9.3 µM
same,TGI,[18],26.9 µM
same,GI50,[19],15.9 µM
same,TGI,[19],35.3 µM
same,GI50,[20],4.14 µM
same,TGI,[20],20 µM
same,GI50,[21],15.4 µM
same,TGI,[21],30.8 µM
same,GI50,[22],5.91 µM
same,TGI,[22],22.3 µM
same,GI50,[23],4.14 µM
same,TGI,[23],17.3 µM
same,GI50,[24],18.4 µM
same,TGI,[24],43.7 µM
same,GI50,[25],5.26 µM
same,TGI,[25],17.9 µM
same,GI50,[26],6.16 µM
same,TGI,[26],23.9 µM
same,GI50,[27],24.8 µM
same,TGI,[27],66.9 µM
same,GI50,[28],10.6 µM
same,TGI,[28],39.5 µM
same,GI50,[29],14.8 µM
same,TGI,[29],36.6 µM
same,GI50,[30],11.4 µM
same,TGI,[30],24 µM
same,GI50,[31],5.74 µM
same,TGI,[31],22.1 µM
same,GI50,[32],4.9 µM
same,TGI,[32],18.3 µM
same,GI50,[33],6.62 µM
same,TGI,[33],30 µM
same,GI50,[34],4.94 µM
same,TGI,[34],21.6 µM
same,GI50,[35],3.58 µM
same,TGI,[35],15.8 µM
same,GI50,[36],11.4 µM
same,TGI,[36],23.9 µM
same,GI50,[37],13 µM
same,TGI,[37],25.7 µM
same,GI50,[38],4.42 µM
same,TGI,[38],> 100 µM
same,GI50,[39],15.1 µM
same,TGI,[39],31.3 µM
same,GI50,[40],12.6 µM
same,TGI,[40],26.7 µM
same,GI50,[41],14.8 µM
same,TGI,[41],85.7 µM
same,GI50,[42],4.02 µM
same,TGI,[42],14.9 µM
same,GI50,[43],1.94 µM
same,TGI,[43],4.4 µM
same,GI50,[44],3.37 µM
same,TGI,[44],13.2 µM
same,GI50,[45],14.7 µM
same,TGI,[45],29.6 µM
same,GI50,[46],18.6 µM
same,TGI,[46],42.9 µM
same,GI50,[47],7.2 µM
same,TGI,[47],22 µM
same,GI50,[48],5.58 µM
same,TGI,[48],33.1 µM
same,GI50,[49],3.3 µM
same,TGI,[49],13.5 µM
same,GI50,[50],7.12 µM
same,TGI,[50],23.2 µM
same,GI50,[51],4.59 µM
same,TGI,[51],> 100 µM
same,GI50,[52],24.5 µM
same,TGI,[52],> 100 µM
same,GI50,[53],5.78 µM
same,TGI,[53],19.1 µM
same,GI50,[54],11.1 µM
same,TGI,[54],> 100 µM
same,GI50,[55],9.84 µM
same,TGI,[55],44.1 µM
same,GI50,[56],3.51 µM
same,TGI,[56],13.2 µM
same,GI50,[57],23 µM
same,TGI,[57],> 100 µM
same,GI50,[58],5.06 µM
same,TGI,[58],21.5 µM
same,GI50,[59],5.05 µM
same,TGI,[59],17.9 µM

# Source: PubChem BioAssay (NCI)
